By melting point is commonly meant the temperature, or range, at which the solid turns liquid.

Marks after values point to notes of the source that are not given here.

Results on 21 molecules are retold here after patent publication US10071095B2, “1,2,4-triazolo [4,3-A] pyridine derivatives and their use for the treatment of neurological and psychiatric disorders” (JANSSEN PHARMACEUTICALS, INC., priority 2009, dated 2018).

For one series, the target named is T1, human mGluR2 receptor (Homo sapiens, UniProt Q14416).
T1 construct: expressed in transfected cells; host or cells: CHO cells
T1 sequence (Q14416 19-872): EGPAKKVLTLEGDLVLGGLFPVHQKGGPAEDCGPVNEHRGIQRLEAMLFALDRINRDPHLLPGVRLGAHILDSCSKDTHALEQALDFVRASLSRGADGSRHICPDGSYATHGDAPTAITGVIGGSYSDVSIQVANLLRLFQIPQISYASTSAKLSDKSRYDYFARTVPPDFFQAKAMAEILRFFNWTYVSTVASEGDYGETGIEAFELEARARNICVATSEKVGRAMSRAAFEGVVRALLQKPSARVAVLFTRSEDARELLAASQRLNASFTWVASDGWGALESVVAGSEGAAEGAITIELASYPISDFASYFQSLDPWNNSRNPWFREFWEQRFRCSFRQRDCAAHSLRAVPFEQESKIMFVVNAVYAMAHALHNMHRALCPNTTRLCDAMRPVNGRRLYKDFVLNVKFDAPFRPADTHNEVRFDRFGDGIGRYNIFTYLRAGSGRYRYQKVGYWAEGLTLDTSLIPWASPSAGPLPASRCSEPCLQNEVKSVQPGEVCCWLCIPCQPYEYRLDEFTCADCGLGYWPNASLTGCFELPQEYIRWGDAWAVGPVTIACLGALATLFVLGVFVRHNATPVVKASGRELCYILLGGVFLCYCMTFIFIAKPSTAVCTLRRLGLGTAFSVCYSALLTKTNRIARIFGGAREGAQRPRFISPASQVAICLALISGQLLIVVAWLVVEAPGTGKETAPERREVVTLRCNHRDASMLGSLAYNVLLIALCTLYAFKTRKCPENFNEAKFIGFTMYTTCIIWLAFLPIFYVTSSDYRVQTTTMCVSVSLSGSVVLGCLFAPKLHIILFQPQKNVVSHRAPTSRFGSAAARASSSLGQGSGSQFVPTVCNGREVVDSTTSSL
Put plainly: [35S]GTPγS binding assay, positive allosteric modulation (GTPγS-PAM) in presence of EC20 glutamate. The format is biochemical. Conditions: in presence of glutamate at EC20, average pEC50 if more experiments, ‡ means tested once; for EC50: read-out: GTPγS - hR2 PAM pEC50 (converted). In short, it runs like this:
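Membranes from butyrate-stimulated CHO cells expressing human mGluR2 (7 μg protein) preincubated 30 min at 30°C with compound plus ~EC20 glutamate in HEPES pH 7.4, 100 mM NaCl, 3 mM MgCl2, 10 μM GDP, 10 μg/ml saponin. [35S]GTPγS (0.1 nM) incorporation over 30 min at 30°C measured by filtration and scintillation counting.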
(Binding of GTPγS marks nucleotide exchange on a G protein.)

Series [1] concerns PCP-induced hyperlocomotion in male NMRI mice. The experiment in a line: Phencyclidine (PCP)-induced hyperlocomotion in mice (video tracking). In kind it is in vivo. Conditions: for Mice ED50 (mg/kg) PCP-Inh., estimated ED50 (footnote a): estimated ED50 values (n = 3 per dose; 4-fold separation between doses). Here is the method:
Motor Activity (Video Tracking)
Apparatus and General Procedure
On the day of experiments, the mice were brought into the procedural room. They were housed individually and allowed to acclimate for at least a half hour prior to testing. Although the studies were conducted during the light cycle (from 8:00 to 16:00 h), the procedure room was only sparsely lit (3 to 30 LUX) to provide better contrast for the video tracking. Local lighting was used for the injection procedures. During each trial, an individual mouse was placed in an open field arena (grey PVC cylinder with a height of 40 cm and a diameter of 22.5 cm). Each arena was placed on an infrared LED (8×8 LEDs)-lit box (white PVC squared box; 40×40 cm^2; height 12.5 cm). Each mouse was placed in the center of the arena and allowed to explore freely for 30 min. After each trial, the arena was cleaned with a wet and subsequently with a dry cleaning cloth. An infrared sensitive tube camera and a white light source (in arena: 4-7 LUX) were mounted to the ceiling above the observation chamber to record and input activity to a computer. Animal behavior was recorded and analyzed using the Noldus Ethovision XT Video Tracking System (Version 3.1; Noldus, Wageningen, The Netherlands). The total distance traveled (cm) was calculated. Data were then exported to data management systems for further analysis and reporting.
Phencyclidine (PCP)-Induced Hyperlocomotion in Mice
Test compound or solvent was administered at a pre-defined time before measurement (standard: 30 min) to male NMRI mice that were challenged with phencyclidine (PCP; 5 mg/kg, s.c.) 30 min before measurement. Activity was measured for a period of 30 min.

Series [2] relates to conditioned avoidance response in male Wiga Wistar rats. Put plainly: Conditioned avoidance response (CAR) test in rats. In kind it is in vivo. Conditions: for ED50: Rattus norvegicus, po, not marked * (not oral; injection per method); b) = estimated ED50 values (n = 3 per dose), read-out: ED50 (mg/kg) CAR-Inh. An excerpt: Conditioned Avoidance Response (CAR) Test
The apparatus consisted of an inner box surrounded by an outer box. The inner box was composed of four walls of transparent, synthetic material (length×width×height: 30×30×30 cm), an open top, and a grid floor made of 15 pairs of iron bars (2 mm diameter; 6 mm inter-bar distance). Odd and even bars were connected with a source of alternative current (1.0 mA; Coulbourn Instruments Solid State Shocker/Distributor), which could be interrupted by a switch. The outer box was composed of the same material (length×width×height: 40×40×36 cm), also with an open top, with a distance of 5 cm between the inner and outer box on all sides. To decrease the amount of environmental stimuli, three walls of the outer box were made non-transparent. The front wall was left transparent to allow the necessary inspection of the animal during the test. The upper edge of the outer and inner box served as a target for the rats on which to jump with fore- and hind-paws, respectively.
Avoidance Conditioning and Selection of Animals
From their arrival in the laboratory on the experimental day, male Wiga Wistar rats (230±30 g) were housed in individual cages provided with bedding material.
Latency to avoidance was recorded. The median avoidance response obtained over the three experimental sessions for each rat were used for further calculations.

Where [3] appears, read: mice, inhibition of PCP-induced hyperlocomotion.

Take `FC(F)(F)c1c(N2CCC(c3ccccc3)CC2)ccn2c(Cc3ccccn3)nnc12` [compound 153, 8-Trifluoromethyl-3-(2-pyridinylmethyl)-7-(4-phenylpiperidin-1-yl)-1,2,4-triazolo[4,3-a]pyridine]: the melting point was over 300 °C. In addition, at human mGluR2 receptor, the EC50 was 195 nM.

Consider `CC(C)OCc1nnc2c(C(F)(F)F)c(N3CCC(F)(c4ccccc4)CC3)ccn12` [compound 18, 7-(4-Fluoro-4-phenylpiperidin-1-yl)-3-[(1-methylethoxy)methyl]-8-(trifluoromethyl)[1,2,4]triazolo[4,3-a]pyridine], for which the melting point was determined as 153.7 °C. In addition, on human mGluR2 receptor, the EC50 was 69.2 nM.

`CC(c1ccn2c(CC3CC3)nnc2c1C(F)(F)F)N1CCC(c2ccccc2)CC1` (stereo not drawn) [compound 244, 3-cyclopropylmethyl-7-[1-(4-phenyl-1-piperidinyl)ethyl]-8-trifluoromethyl-1,2,4-triazolo[4,3-a]pyridine] registered a melting point of 142.3 °C. In addition, in series [1] (setting [3]), the “Mice ED50 (mg/kg) PCP-Inh., estimated ED50 (footnote a)” value (shortened to “Mice ED50 … (footnote a)”) is 5.0 ^a) mg/kg. Also, on human mGluR2 receptor, the EC50 was 24 nM.

`Clc1c(N2CCC3(CC2)OCc2ccccc23)ccn2c(CC3CC3)nnc12` [compound 6, 1′-[8-Chloro-3-(cyclopropylmethyl)-1,2,4-triazolo[4,3-a]pyridin-7-yl]-spiro[isobenzofuran-1(3H),4′piperidine]] gave a melting point of 194.5 °C. Moreover, the EC50 on human mGluR2 receptor was 129 nM.

As to `FC(F)(F)c1c(CN2CCC(c3ccccc3)CC2)ccn2c(CC3CC3)nnc12` [compound 298, 3-(Cyclopropylmethyl)-7-[(4-phenyl-1-piperidinyl)methyl]-8-(trifluoromethyl)-1,2,4-triazolo[4,3-a]pyridine], in series [1] (mice), the “inhibition of PCP-induced hyperlocomotion in mice (in words)” value (“inhibition … in mice (in words)” below) is “inhibited”. Moreover, the “Mice ED50 … (footnote a)” value in series [1] (setting [3]) is on record as 5.0 ^a) mg/kg. In series [2], the “inhibition of the conditioned avoidance response in rats (in words)” value was “inhibited” and the ED50 is 5 mg/kg.

`FC(F)(F)c1c(N2CCC3(CC2)COc2ccccc23)ccn2c(CC3CC3)nnc12` [compound 17, 1′-[3-cyclopropylmethyl-8-(trifluoromethyl)[1,2,4]triazolo[4,3-a]pyridin-7-yl]-spiro[1-benzofuran-3,4′-piperidine]] showed a melting point of over 300 °C. Moreover, the ED50 in series [1] (Mus musculus, read-out: Mice ED50 (mg/kg) PCP-Inh.) was 15.2 mg/kg. Besides, the “inhibition … in mice (in words)” value in series [1] (mice) is “inhibited”. Besides, the EC50 on human mGluR2 receptor is 35.5 nM.

Regarding `Clc1c(CN2CCC(c3ccccc3)CC2)ccn2c(CC3CC3)nnc12` [compound 1, 8-Chloro-3-cyclopropylmethyl-7-[(4-phenyl-1-piperidinyl)methyl]-1,2,4-triazolo[4,3-a]pyridine], the melting point was determined as 181.8 °C. In addition, the EC50 on human mGluR2 receptor is 209 nM.

As to `Fc1cccc(F)c1N1CCN(Cc2ccn3c(CC4CC4)nnc3c2Cl)CC1` [compound 282], the melting point was found to be 180.4 °C. In addition, the EC50 on human mGluR2 receptor is 204 nM.

`CC1(C)CN(c2ccn3c(CC(F)(F)F)nnc3c2Cl)CCN1c1ccccc1` [compound 100, 8-Chloro-3-(2,2,2-trifluoroethyl)-7-(3,3-dimethyl-4-phenyl-piperazin-1-yl)-[1,2,4]triazolo[4,3-a]pyridine] returned a melting point of 260.2 °C. Further, on human mGluR2 receptor, the EC50 was 309 nM.

As for `FC(F)(F)c1c(N2CCN(c3ccccc3)CC2)ccn2c(CC3CC3)nnc12` [compound 76], the “inhibition … in mice (in words)” value in series [1] (mice) is “inhibited”. In addition, the “Mice ED50 (mg/kg) PCP-Inh.” value in series [1] (mice, inhibition of PCP-induced hyperlocomotion, dose at which 50% of the tested animals show the effect) is on record as 3.1^ mg/kg. Moreover, in series [2] (compound administered orally (*); a)/b) = estimated ED50 values), the “ED50 (mg/kg) CAR-Inh.” value was ≥40* mg/kg. Further, the “GTPγS - hR2 PAM pEC50” value at human mGluR2 receptor stood at 6.93.

The molecule `Cc1c(N2CCC(c3ccccc3)CC2)ccn2c(CC3CC3)nnc12` [compound 145, 3-Cyclopropylmethyl-8-methyl-7-(4-phenyl-piperidin-1-yl)-[1,2,4]triazolo[4,3-a]pyridine] registered a melting point of over 300 °C. Further, at human mGluR2 receptor, the EC50 is 417 nM.

Consider `FC(F)(F)Cc1nnc2c(Cl)c(N3CCC4(CC3)OCc3ccccc34)ccn12` [compound 8], for which the melting point is over 300 °C. The EC50 at human mGluR2 receptor is 97.7 nM.

Regarding `Fc1ccc(N2CCN(Cc3ccn4c(CC5CC5)nnc4c3C(F)(F)F)CC2)c(F)c1` [compound 224, 3-(Cyclopropylmethyl)-7-[[4-(2,4-difluorophenyl)-1-piperazinyl]methyl]-8-(trifluoromethyl)-1,2,4-triazolo[4,3-a]pyridine], in series [1] (mice), the “inhibition … in mice (in words)” value was “inhibited”. In addition, the “Mice ED50 … (footnote a)” value in series [1] (setting [3]) is reported as 2.0 ^a) mg/kg. Further, in series [2], the “inhibition of the conditioned avoidance response in rats (in words)” value is “inhibited” and the ED50 was 5 mg/kg.

As for `Brc1c(N2CCC(c3ccccc3)CC2)ccn2c(CC3CC3)nnc12` [compound 207, 8-Bromo-3-cyclopropylmethyl-7-[4-phenylpiperidin-1-yl]-[1,2,4]triazolo[4,3-a]pyridine], the melting point was 281.5 °C. In addition, the EC50 at human mGluR2 receptor was 35.5 nM.

On to `C[C@@H]1CN(c2ccn3c(CC4CC4)nnc3c2C(F)(F)F)CCN1c1cc(F)cc(F)c1` [compound 182, 3-(Cyclopropylmethyl)-7-((3R)-4-3,5-difluorophenyl-3-methylpiperazin-1-yl)-(8-trifluoromethyl)-1,2,4-triazolo[4,3-a]pyridine], for which the melting point came to 147.5 °C. In addition, the EC50 at human mGluR2 receptor is 93.3 nM.

`N#Cc1c(N2CCC(c3ccccc3)CC2)ccn2c(CN3CCOCC3)nnc12` [compound 11]: the melting point amounted to 300 °C. Moreover, at human mGluR2 receptor, the EC50 was 7590 nM.

`FC(F)(F)c1c(N2CCC(c3ccccc3)CC2)ccn2c(CCC3CC3)nnc12` [compound 123, 8-Trifluoromethyl-3-(2′-cyclopropyl)ethyl-7-(4-phenylpiperidin-1-yl)-[1,2,4]triazolo[4,3-a]pyridine] had a melting point of 300 °C. The EC50 at human mGluR2 receptor was 40.7 nM.

`Clc1c(N2CCC(c3ccccc3)CC2)ccn2c(CC3CC3)nnc12` [compound 26, 8-Chloro-3-cyclopropylmethyl-7-[4-phenyl-piperidin-1-yl]-[1,2,4]triazolo[4,3-a]pyridine] showed a melting point of 194.1 °C. The “GTPγS - hR2 PAM pEC50” value on human mGluR2 receptor turned out to be 6.99.

`Cc1c(C2CCN(c3ccc(F)cc3F)CC2)ccn2c(CC3CC3)nnc12` [compound 204, 3-Cyclopropylmethyl-7-[1-(2,4-difluoro-phenyl)-piperidin-4-yl]-8-methyl-[1,2,4]triazolo[4,3-a]pyridine] registered a melting point of 283.5 °C. The EC50 on human mGluR2 receptor was 1350 nM.

As to `c1ccc(C2CCN(c3ccn4c(CC5CC5)nnc4c3C3CC3)CC2)cc1` [compound 159, 3-Cyclopropylmethyl-8-cyclopropyl-7-(4-phenylpiperidin-1-yl)-[1,2,4]triazolo[4,3-a]pyridine], the melting point was over 300 °C. The EC50 at human mGluR2 receptor was 204 nM.

`CC(c1ccn2c(CC3CC3)nnc2c1Cl)N1CCC(c2ccccc2)CC1` (stereo not drawn) [compound 255] displayed a melting point of 182.1 °C. For the same molecule, on human mGluR2 receptor, the EC50 was 166 nM.
